Patent US20190284136A1, “INDOLINE DERIVATIVES” (ViiV HEALTHCARE UK LIMITED, priority 2016, published 2019)

Tested on: HIV
Experiment: Table 1 IC50 of the examples (assay method not given; patent concerns inhibiting HIV replication)
Type: cell-based
Details: Human immunodeficiency virus 1

`COc1cc(Cl)ccc1C(=O)N1CCc2c1cc(C)c([C@H](OC(C)(C)C)C(=O)O)c2-c1cc(F)c2c(c1C)CCCO2` (atropisomer, axis not shown) [Example 72, (S)-2-(tert-Butoxy)-2-((R)-1-(4-chloro-2-methoxybenzoyl)-4-(8-fluoro-5-methylchroman-6-yl)-6-methylindolin-5-yl)acetic acid] was tested, and the IC50 was 7 nM.

Work on `Cc1ccc(C(=O)N2CCc3c2cc(C)c([C@H](OC(C)(C)C)C(=O)O)c3-c2cc(F)c3c(c2C)CCCO3)cc1F` (atropisomer, axis not shown) [Example 73, (S)-2-(tert-Butoxy)-2-((R)-1-(3-fluoro-4-methylbenzoyl)-4-(8-fluoro-5-methylchroman-6-yl)-6-methylindolin-5-yl)acetic acid] yielded an IC50 of 6 nM.

With `COc1ccc(C(=O)N2CCc3c2cc(C)c([C@H](OC(C)(C)C)C(=O)O)c3-c2cc(F)c3c(c2C)CCCO3)cc1F` (atropisomer, axis not shown) [Example 74, (S)-2-(tert-butoxy)-2-((R)-1-(3-fluoro-4-methoxybenzoyl)-4-(8-fluoro-5-methylchroman-6-yl)-6-methylindolin-5-yl)acetic acid] the IC50 was 5 nM.

In the case of `COc1c(Cl)cccc1C(=O)N1CCc2c1cc(C)c([C@H](OC(C)(C)C)C(=O)O)c2-c1cc(F)c2c(c1C)CCCO2` (atropisomer, axis not shown) [Example 75, (S)-2-(tert-Butoxy)-2-((R)-1-(3-chloro-2-methoxybenzoyl)-4-(8-fluoro-5-methylchroman-6-yl)-6-methylindolin-5-yl)acetic acid], the IC50 is reported as 6.61 nM.

`Cc1cc2c(c(-c3cc(F)c4c(c3C)CCCO4)c1[C@H](OC(C)(C)C)C(=O)O)CCN2C(=O)c1cncc(F)c1` (atropisomer, axis not shown) [Example 76, (S)-2-(tert-Butoxy)-2-((R)-4-(8-fluoro-5-methylchroman-6-yl)-1-(5-fluoronicotinoyl)-6-methylindolin-5-yl)acetic acid] gave an IC50 of 15 nM.

In the case of `Cc1cc(C)cc(C(=O)N2CCc3c2cc(C)c([C@H](OC(C)(C)C)C(=O)O)c3-c2cc(F)c3c(c2C)CCCO3)c1` (atropisomer, axis not shown) [Example 77, (S)-2-(tert-Butoxy)-2-((R)-1-(3,5-dimethylbenzoyl)-4-(8-fluoro-5-methylchroman-6-yl)-6-methylindolin-5-yl)acetic acid], the IC50 is reported as 5 nM.

In the case of `CC(=O)Nc1cccc(C(=O)N2CCc3c2cc(C)c([C@H](OC(C)(C)C)C(=O)O)c3-c2cc(F)c3c(c2C)CCCO3)c1` (atropisomer, axis not shown) [Example 78, (S)-2-((R)-1-(3-Acetamidobenzoyl)-4-(8-fluoro-5-methylchroman-6-yl)-6-methylindolin-5-yl)-2-(tert-butoxy)acetic acid], the IC50 is reported as 310 nM.

With `COc1cccc(OC)c1C(=O)N1CCc2c1cc(C)c([C@H](OC(C)(C)C)C(=O)O)c2-c1cc(F)c2c(c1C)CCCO2` (atropisomer, axis not shown) [Example 79, (S)-2-(tert-Butoxy)-2-((R)-1-(2,6-dimethoxybenzoyl)-4-(8-fluoro-5-methylchroman-6-yl)-6-methylindolin-5-yl)acetic acid] the IC50 was 55 nM.

`Cc1ccc(F)cc1C(=O)N1CCc2c1cc(C)c([C@H](OC(C)(C)C)C(=O)O)c2-c1cc(F)c2c(c1C)CCCO2` (atropisomer, axis not shown) [Example 80, (S)-2-(tert-Butoxy)-2-((R)-1-(5-fluoro-2-methylbenzoyl)-4-(8-fluoro-5-methylchroman-6-yl)-6-methylindolin-5-yl)acetic acid] gave an IC50 of 4 nM.

Compound `Cc1cncc(C(=O)N2CCc3c2cc(C)c([C@H](OC(C)(C)C)C(=O)O)c3-c2cc(F)c3c(c2C)CCCO3)c1` (atropisomer, axis not shown) [Example 81, (S)-2-(tert-Butoxy)-2-((R)-4-(8-fluoro-5-methylchroman-6-yl)-6-methyl-1-(5-methylnicotinoyl)indolin-5-yl)acetic acid] has an IC50 of 14 nM.

With `Cc1cc2c(c(-c3cc(F)c4c(c3C)CCCO4)c1[C@H](OC(C)(C)C)C(=O)O)CCN2C(=O)c1cc(Cl)cc(Cl)c1` (atropisomer, axis not shown) [Example 82, (S)-2-(tert-Butoxy)-2-((R)-1-(3,5-dichlorobenzoyl)-4-(8-fluoro-5-methylchroman-6-yl)-6-methylindolin-5-yl)acetic acid] the IC50 was 12 nM.

`Cc1cc2c(c(-c3cc(F)c4c(c3C)CCCO4)c1[C@H](OC(C)(C)C)C(=O)O)CCN2C(=O)c1cccc2c1OCCO2` (atropisomer, axis not shown) [Example 83, (S)-2-(tert-Butoxy)-2-((R)-1-(2,3-dihydrobenzo[b][1,4]dioxine-5-carbonyl)-4-(8-fluoro-5-methylchroman-6-yl)-6-methylindolin-5-yl)acetic acid] gave an IC50 of 7 nM.

For `COc1cccc(C(=O)N2CCc3c2cc(C)c([C@H](OC(C)(C)C)C(=O)O)c3-c2cc(F)c3c(c2C)CCCO3)c1OC` (atropisomer, axis not shown) [Example 84, (S)-2-(tert-Butoxy)-2-((R)-1-(2,3-dimethoxybenzoyl)-4-(8-fluoro-5-methylchroman-6-yl)-6-methylindolin-5-yl)acetic acid], the IC50 was 41 nM.

`COc1ccc(C(=O)N2CCc3c2cc(C)c([C@H](OC(C)(C)C)C(=O)O)c3-c2cc(F)c3c(c2C)CCCO3)c(F)c1` (atropisomer, axis not shown) [Example 85, (S)-2-(tert-Butoxy)-2-((R)-1-(2-fluoro-4-methoxybenzoyl)-4-(8-fluoro-5-methylchroman-6-yl)-6-methylindolin-5-yl)acetic acid] gave an IC50 of 6 nM.

`COc1ccc(C(=O)N2CCc3c2cc(C)c([C@H](OC(C)(C)C)C(=O)O)c3-c2cc(F)c3c(c2C)CCCO3)cc1OC` (atropisomer, axis not shown) [Example 86, (S)-2-(tert-Butoxy)-2-((R)-1-(3,4-dimethoxybenzoyl)-4-(8-fluoro-5-methylchroman-6-yl)-6-methylindolin-5-yl)acetic acid] was tested, and the IC50 was 5 nM.

`COc1c(C)cccc1C(=O)N1CCc2c1cc(C)c([C@H](OC(C)(C)C)C(=O)O)c2-c1cc(F)c2c(c1C)CCCO2` (atropisomer, axis not shown) [Example 87, (S)-2-(tert-Butoxy)-2-((R)-4-(8-fluoro-5-methylchroman-6-yl)-1-(2-methoxy-3-methylbenzoyl)-6-methylindolin-5-yl)acetic acid] gave an IC50 of 5 nM.

Compound `COc1ccc(C(=O)N2CCc3c2cc(C)c([C@H](OC(C)(C)C)C(=O)O)c3-c2cc(F)c3c(c2C)CCCO3)c(OC)c1` (atropisomer, axis not shown) [Example 88, (S)-2-(tert-Butoxy)-2-((R)-1-(2,4-dimethoxybenzoyl)-4-(8-fluoro-5-methylchroman-6-yl)-6-methylindolin-5-yl)acetic acid] has an IC50 of 5 nM.

`COc1cc(C)cc(C(=O)N2CCc3c2cc(C)c([C@H](OC(C)(C)C)C(=O)O)c3-c2cc(F)c3c(c2C)CCCO3)c1` (atropisomer, axis not shown) [Example 89, (S)-2-(tert-Butoxy)-2-((R)-4-(8-fluoro-5-methylchroman-6-yl)-1-(3-methoxy-5-methylbenzoyl)-6-methylindolin-5-yl)acetic acid] showed an IC50 of 3 nM.

In the case of `COc1ncccc1C(=O)N1CCc2c1cc(C)c([C@H](OC(C)(C)C)C(=O)O)c2-c1cc(F)c2c(c1C)CCCO2` (atropisomer, axis not shown) [Example 90, (S)-2-(tert-Butoxy)-2-((R)-4-(8-fluoro-5-methylchroman-6-yl)-1-(2-methoxynicotinoyl)-6-methylindolin-5-yl)acetic acid], the IC50 is reported as 5 nM.

With `Cc1cc2c(c(-c3cc(F)c4c(c3C)CCCO4)c1[C@H](OC(C)(C)C)C(=O)O)CCN2C(=O)c1ccncc1F` (atropisomer, axis not shown) [Example 91, (S)-2-(tert-Butoxy)-2-((R)-4-(8-fluoro-5-methylchroman-6-yl)-1-(3-fluoroisonicotinoyl)-6-methylindolin-5-yl)acetic acid] the IC50 was 156 nM.

For `Cc1cc2c(c(-c3cc(F)c4c(c3C)CCCO4)c1[C@H](OC(C)(C)C)C(=O)O)CCN2C(=O)c1cccc(Cl)c1Cl` (atropisomer, axis not shown) [Example 92, (S)-2-(tert-Butoxy)-2-((R)-1-(2,3-dichlorobenzoyl)-4-(8-fluoro-5-methylchroman-6-yl)-6-methylindolin-5-yl)acetic acid], the IC50 was 6 nM.

`Cc1cc2c(c(-c3cc(F)c4c(c3C)CCCO4)c1[C@H](OC(C)(C)C)C(=O)O)CCN2C(=O)c1cccc(C(F)(F)F)c1` (atropisomer, axis not shown) [Example 93, (S)-2-(tert-Butoxy)-2-((R)-4-(8-fluoro-5-methylchroman-6-yl)-6-methyl-1-(3-(trifluoromethyl)benzoyl)indolin-5-yl)acetic acid] showed an IC50 of 19 nM.

Compound `Cc1ccc(C(=O)N2CCc3c2cc(C)c([C@H](OC(C)(C)C)C(=O)O)c3-c2cc(F)c3c(c2C)CCCO3)cc1C` (atropisomer, axis not shown) [Example 94, (S)-2-(tert-Butoxy)-2-((R)-1-(3,4-dimethylbenzoyl)-4-(8-fluoro-5-methylchroman-6-yl)-6-methylindolin-5-yl)acetic acid] has an IC50 of 4 nM.

`CNC(=O)c1ccc(C(=O)N2CCc3c2cc(C)c([C@H](OC(C)(C)C)C(=O)O)c3-c2cc(F)c3c(c2C)CCCO3)cc1` (atropisomer, axis not shown) [Example 95, (S)-2-(tert-Butoxy)-2-((R)-4-(8-fluoro-5-methylchroman-6-yl)-6-methyl-1-(4-(methylcarbamoyl)benzoyl)indolin-5-yl)acetic acid] gave an IC50 of 142 nM.

`Cc1cc2c(c(-c3cc(F)c4c(c3C)CCCO4)c1[C@H](OC(C)(C)C)C(=O)O)CCN2C(=O)c1cccc(F)c1C` (atropisomer, axis not shown) [Example 96, (S)-2-(tert-Butoxy)-2-((R)-1-(3-fluoro-2-methylbenzoyl)-4-(8-fluoro-5-methylchroman-6-yl)-6-methylindolin-5-yl)acetic acid] was tested, and the IC50 was 4 nM.

Work on `Cc1cc(F)cc(C(=O)N2CCc3c2cc(C)c([C@H](OC(C)(C)C)C(=O)O)c3-c2cc(F)c3c(c2C)CCCO3)c1` (atropisomer, axis not shown) [Example 97, (S)-2-(tert-Butoxy)-2-((R)-1-(3-fluoro-5-methylbenzoyl)-4-(8-fluoro-5-methylchroman-6-yl)-6-methylindolin-5-yl)acetic acid] yielded an IC50 of 6 nM.
